Assay results taken from patent US10154974B1, “Use of abscisic acid for the prevention and treatment of malaria” (The Regents of the University of California, priority 2015, dated 2018).
“And” between values parts separate entries of the source, which are not always exact repeats. Equal values may be shown once.

Legend:
[1] = tested on: prospero, escargot, ATG6, ATG8; assay: Expression of midgut epithelial cell turnover genes; assay type: in vivo, Anopheles stephensi; details: P. falciparum-fed mosquito midguts
Procedure: Data are shown as fold changed compared to control-treated mosquitoes. Each dot represents one replicate of 10 pooled midguts. Data were analyzed by one sample t-test. * p<0.05. nd indicates the prospero was not detectable at 72 or 96 hours.

Complete blood counts = assay type: in vivo, mice
Procedure: (§1) FIG. 19A-C through FIG. 28A-B and Tables 6-1 through 6-4 support the use of ABA for treating Plasmodium-infected mammalian subjects. In the following tables, 4-5 mice were used per treatment, and data were analyzed by unpaired t-test. […] Abbreviations for Tables 6-3 and 6-4 are as follows: WBC=white blood cells, RBCs=red blood cells, MCV=mean corpuscular volume, MCH=mean corpuscular hemoglobin, MCHC=mean corpuscular hemoglobin concentration, RDW=red blood cell distribution width, MPV=mean platelet volume.

[2] = tested on: inflammatory bowel disease (IBD); details: ABA supplementation; cited from earlier work
[3] = tested on: peroxisome proliferator activated receptor gamma (PPARγ); assay: PPARγ transcript levels in mouse liver and spleen; assay type: in vivo, mice; details: day 7 of infection
Procedure: (§2) For mosquito immune gene expression, 20 midguts were dissected from mosquitoes in each treatment group at 1, 2, 4, 6, 8 and 24 hours post-feeding. Midguts were sonicated and stored in Trizol at −20° C. for up to a week before RNA was extracted according to manufacturer's instructions. cDNA synthesis was carried out using QantiTect Reverse Transcription Kit (Qiagen) and 200 ng of cDNA used per reaction for qRT-PCR with Sybr Green (Applied Biosystems). Fold changes in expression levels were calculated using the comparative threshold cycle method. Data were normalized to the housekeeping gene ribosomal protein S7 and to the control treatment. Primers and cycling conditions for AsNOS, defensin, LRIM, TEP1, and APL1 were as previously described (Hauck E S, et al. Microbes Infect. 2013; 15:775-87). For gene expression analysis of mouse liver and spleen, organs were flash frozen after necropsy and stored at −80° C. before RNA was extracted in Trizol and cDNA synthesized. Real-time PCR was performed using TaqMan probe-based expression assays for mouse NOS2, PPARγ (Mm00440940), and β-actin (Applied Biosystems) with volumes and cycling conditions as previously described (Chau et al., Infect Immun, 2013, 81:3515-26). Samples were analyzed in triplicate with 250 ng of cDNA per reaction to confirm uniformity of amplification. […] All expression data were analyzed by one sample t-test.

[4] = Small animal chemistry panel of plasma; assay type: in vivo, mice
Procedure: as §1

influenza = details: ABA treatment; cited from earlier work
TAK = TAK phosphorylation in mosquito midgut; assay type: in vivo, Anopheles stephensi; details: ABA-supplemented parasite-fed mosquito midguts
Procedure: FIG. 11A-D illustrate that ABA decreases P. falciparum infection by increasing TAK phosphorylation. […] Each dot represents one replicate of 15 pooled midguts. […] Phosphorylated TAK levels were analyzed by one sample t-test, NOS expression by Wilcoxon matched-pairs signed rank test, and infection prevalence by Fisher's exact test. * p<0.05.

Anopheles stephensi = assay: Mosquito lifespan with weekly ABA-supplemented bloodmeals; assay type: in vivo
Procedure: Median survival of control and ABA-treated mosquitoes from five lifespans in which mosquitoes received a weekly control or ABA-supplemented uninfected bloodmeal. Each lifespan was conducted with 300 female mosquitoes per treatment. Data were analyzed by Wilcoxon matched-pairs signed rank test.
FIG. 17A is a survival curve of mosquitoes provided weekly control or ABA-supplemented uninfected bloodmeals and maintained on 3% sucrose solution. FIG. 17B is a survival curve of P. falciparum-infected mosquitoes provided control or ABA-supplemented weekly bloodmeals. Infection status was determined by detection of PfCOX in individual mosquitoes by qRT-PCR. Data were analyzed by log-rank test and Gehan-Breslow-Wilcoxon test.

APL1 = APL1 expression in mosquito midgut; assay type: in vivo, Anopheles stephensi; details: 100 nM ABA, 4 and 8 hours post-feeding
Procedure: as §2, with “For gene expression analysis of mouse liver and spleen, organs were flash frozen after necropsy and stored at −80° C. before RNA was extracted in Trizol and cDNA synthesized. Real-time PCR was performed using TaqMan probe-based expression assays for mouse NOS2, PPARγ (Mm00440940), and β-actin (Applied Biosystems) with volumes and cycling conditions as previously described (Chau et al., Infect Immun, 2013, 81:3515-26).” left out
(§3) Transcript levels of a panel of immune genes previously described to play a role in the mosquito immune response to malaria parasites were examined. […] Mosquitoes were provided with a P. falciparum-infected bloodmeal supplemented with 100 nM ABA or with an equivalent volume of diluent as control, then analyzed at 1-24 hours post feeding.

defensin = assay: Defensin mRNA levels in mosquito midgut; assay type: in vivo, Anopheles stephensi; details: 100 nM ABA, 4 hours post-feeding
Procedure: as §2, with “For gene expression analysis of mouse liver and spleen, organs were flash frozen after necropsy and stored at −80° C. before RNA was extracted in Trizol and cDNA synthesized. Real-time PCR was performed using TaqMan probe-based expression assays for mouse NOS2, PPARγ (Mm00440940), and β-actin (Applied Biosystems) with volumes and cycling conditions as previously described (Chau et al., Infect Immun, 2013, 81:3515-26).” left out
as §3

[5] = P. yoelii infection, day 11 post-infection
[6] = uninfected and P. yoelii-infected mice
[7] = uninfected and infected mice, day 11 post-infection

CC1=CC(=O)CC(C)(C)[C@@]1(O)/C=C/C(C)=C\C(=O)O (racemic) [ABA, (2Z,4E)-5-[(1S)-1-hydroxy-2,6,6-trimethyl-4-oxocyclohex-2-en-1-yl]-3-methylpenta-2,4-dienoic acid]
expression of genes involved in midgut epithelial cell turnover [1]: reduces expression | percentage of basophils in whole blood (Complete blood counts; [5]): partially rescues decrease | percentage of eosinophils in whole blood (Complete blood counts; [5]): partially rescues decrease | % RDW, Mean (Complete blood counts; P. yoelii-infected mice): 34.95% | % hematocrit, Mean (Complete blood counts; P. yoelii-infected mice): 21.00% | % lymphocytes, Mean (Complete blood counts; P. yoelii-infected mice): 69.22% | % monocytes, Mean (Complete blood counts; P. yoelii-infected mice): 5.31% | % neutrophils, Mean (Complete blood counts; P. yoelii-infected mice): 22.8% | MCHC, Mean (Complete blood counts; P. yoelii-infected mice): 34.73 g/dL | MCV, Mean (Complete blood counts; P. yoelii-infected mice): 55.20 fL | MPV, Mean (Complete blood counts; P. yoelii-infected mice): 6.23 fL | RBCs, Mean (Complete blood counts; P. yoelii-infected mice): 3.83 M/ul | WBC, Mean (Complete blood counts; P. yoelii-infected mice): 31.90 K/uL | hemoglobin, Mean (Complete blood counts; P. yoelii-infected mice): 7.28 g/dL | platelets, Mean (Complete blood counts; P. yoelii-infected mice): 234.3 K/ul | complete blood counts (Complete blood counts; [6]): no effect | % RDW, Mean (Complete blood counts; uninfected mice): 17.02% | % hematocrit, Mean (Complete blood counts; uninfected mice): 38.48% | % lymphocytes, Mean (Complete blood counts; uninfected mice): 66.56% | % monocytes, Mean (Complete blood counts; uninfected mice): 11.71% | % neutrophils, Mean (Complete blood counts; uninfected mice): 17.53% | MCHC, Mean (Complete blood counts; uninfected mice): 32.72 g/dL | MCV, Mean (Complete blood counts; uninfected mice): 43.14 fL | MPV, Mean (Complete blood counts; uninfected mice): 5.74 fL | RBCs, Mean (Complete blood counts; uninfected mice): 8.94 M/ul | WBC, Mean (Complete blood counts; uninfected mice): 5.73 K/uL | hemoglobin, Mean (Complete blood counts; uninfected mice): 12.56 g/dL | platelets, Mean (Complete blood counts; uninfected mice): 573.0 K/ul | epithelial erosion and leukocyte infiltration [2]: reduced | transcript levels of PPARγ [3]: increased | alanine transaminase, Mean ([4]; P. yoelii-infected mice): 30.23 U/L | albumin, Mean ([4]; P. yoelii-infected mice): 2.25 g/dL | aspartate transaminase, Mean ([4]; P. yoelii-infected mice): 194.7 U/L | creatine, Mean ([4]; P. yoelii-infected mice): 0.18 mg/dL | phosphorus, Mean ([4]; P. yoelii-infected mice): 8.43 mg/dL | total bilirubin, Mean ([4]; P. yoelii-infected mice): 0.26 mg/dL | total protein, Mean ([4]; P. yoelii-infected mice): 4.12 g/dL | liver function (blood urea nitrogen levels in plasma) ([4]; day 11 post-infection): improved | plasma indicators of organ health [4, 6]: no effect | glucose levels in mouse plasma [4, 7]: does not alter | insulin levels in mouse plasma [4, 7]: does not alter | alanine transaminase, Mean ([4]; uninfected mice): 176.8 U/L | albumin, Mean ([4]; uninfected mice): 3.23 g/dL | aspartate transaminase, Mean ([4]; uninfected mice): 1437 U/L | blood urea nitrogen, Mean ([4]; uninfected mice): 28.76 mg/dL | creatine, Mean ([4]; uninfected mice): 0.21 mg/dL | phosphorus, Mean ([4]; uninfected mice): 10.07 mg/dL | total bilirubin, Mean ([4]; uninfected mice): 0.06 mg/dL | total protein, Mean ([4]; uninfected mice): 4.67 g/dL | vascular infiltrates (influenza): decreased | viral load (influenza): no effect | TAK phosphorylation (TAK): increasing | mosquito lifespan (Anopheles stephensi; P. falciparum-infected mosquitoes): does not alter | mosquito median survival (Anopheles stephensi; five lifespans, weekly uninfected bloodmeal): does not alter | Median Survival (Anopheles stephensi; mosquitoes, weekly ABA-supplemented uninfected bloodmeal, replicates 1-5): 23 days and 16 days (2×) and 21 days and 18 days | mosquito lifespan (Anopheles stephensi; nutrient stress: maintained on 3% sucrose solution): does not alter | APL1 expression (APL1): increased | defensin mRNA levels (defensin): increase
